The text below walks through data of patent publication US20100092574A1, “SYNERGISTIC PEROXIDE BASED BIOCIDAL COMPOSITIONS” (priority 2008, published 2010).

A short description of series [1]: Stability of active halogen species in the presence of residual H2O2. Type of series: physicochemical. How it is done:
The stability of nitrogen-bound active halogen species in the presence of residual H2O2 was investigated. Free and total chlorine concentrations were measured by standard DPD methodology and the total H2O2 concentration by acidic […] titration. The concentration of MCDMH is the concentration of the total active halogen less the concentration of free active halogen. The concentration of H2O2 is the total oxidant concentration less the MCDMH concentration. […] The indicated reaction is shown in Equation 6.
The effect of the addition of a molar equivalent of 5,5-dimethylhydantoin (DMH) to NaOCl solutions prior to combination with hydrogen peroxide was investigated. The concentration of MCDMH is the concentration of the total active halogen less the concentration of free active halogen. The concentration of H2O2 is the total oxidant concentration less the MCDMH concentration.

A short description of series [2]: Residual sulfite and hydrogen peroxide content after mixing (co-stability). Type of series: physicochemical. How it is done: Aqueous solutions containing sodium sulfite and hydrogen peroxide were mixed at 21° C. to obtain a solution having a sulfite content (as SO3^2−) of 40 ppm, a hydrogen peroxide content of 20.0 ppm and a pH of 6.7. The temperature of the solution was maintained at 21° C. and the residual sulfite and peroxide content was determined at 15, 30 and 60 minutes after mixing. The procedure consisted of adding a known amount of 1-chloro-5,5-dimethylhydantoin (MCDMH) to the samples in excess of the estimated residual sulfite content. The remaining MCDMH concentration was then measured by standard DPD total halogen methodologies. As sulfite rapidly neutralizes MCDMH at all pHs the sulfite concentration is the concentration of MCDMH added less the concentration of MCDMH measured, see Equation 1 below.
[Sulfite]=[MCDMHadded]−[MCDMHmeasured] (1)
The H2O2 concentration was determined by recording the concentration of H2O2 measured using acidic thiosulfate titration with KI indicator (HACH HYP-1 hydrogen peroxide test kit—Hach Co., Loveland, Colo.). Since this titration is run at acidic pH, this method yields the concentration of H2O2 in excess of the sulfite concentration contained in the sample. As the sulfite concentration is known from the MCMDH analysis and Equation 1, the H2O2 concentration can be calculated using the following Equation 2:
[H2O2]=[H2O2 measured]+[Sulfitecalculated] (2)
The estimated error in the methodology is ±1 ppm
The procedure of Example 1 was repeated with the difference that the pH of the mixed solution was 9.0 and the residual concentrations were determined 5, 15, 30, 60, 120 and 1080 minutes after mixing.

Series [3] concerns microbial population of sulfite bleached pulp slurry (total aerobic counts). The experiment in a line: Biocidal performance in sulfite bleached pulp slurry, total aerobic counts (tryptone soy agar plating). The class given is cell-based. The conditions noted are these: for 3 h Reduction / 24 h Reduction: peroxide 0 ppm; for 3 h Reduction: 3 h contact; for 24 h Reduction: 24 h contact. The source says: (§1) The expression “1 g cfu/mL” denotes the common (decadic) logarithm of the number of colony-forming units per milliliter or, in connection with the term “reduction”, the common logarithm of the quotient of the number of colony-forming units per milliliter before treatment and the number of colony-forming units after treatment. Unless otherwise indicated all concentrations in percent or ppm are expressed on a weight basis.
Synergistic biocidal performance upon co-application of sulfite with hydrogen peroxide at elevated pH was investigated. The sulfite and peroxide concentrations indicated in Table 3 below were added to an aqueous solution made from: (a) deionized water, (b) NaHCO3 to achieve a carbonate buffer concentration of 200 ppm (as CaCO3 total alkalinity), (c) sulfite bleached pulp slurry to achieve a final consistency of 0.05%, carrying an associated minimal concentration of residual sulfite of 6 ppm, and (d) NaOH to achieve a pH of 9.0.
The microbial population was that provided by preparing the pulp slurry 24-48 h prior to testing and storing at room temperature, thus allowing microbial growth to a high test level. […] Populations reported are total aerobic counts using tryptone soy agar plating.
SI=(level of A)/(efficacious level of A)+(level of B)/(efficacious level of B) (3)
Synergy upon co-application of sulfite with hydrogen peroxide at higher concentrations of sulfite and hydrogen peroxide was investigated. The conditions were the same as in Example 3.

The next series has as its system Pseudomonas aeruginosa. The experiment in a line: Bactericidal efficacy of sulfite and hydrogen peroxide solutions in the absence of pulp. Type of series: cell-based. The note with it: peroxide 0 ppm, pH 7.0, 3 h at 37° C.
Text: as §1
The bactericidal efficacy of solutions containing sulfite and hydrogen peroxide was further investigated in the absence of pulp. Efficacy was measured against Pseudomonas aeruginosa grown in nutrient in the presence of 83 and 830 ppm sulfite. The sulfite-containing P. aeruginosa inoculum was then diluted 1:99 with Butterfield's buffer at pH 7.0. The sulfite concentrations in Table 5 below are the those in the final dilution. The dilutions were then contacted with 50 ppm hydrogen peroxide for 3 h at 37° C.

Where [4] appears, read: 2.1 ppm H2O2 + 1.0 ppm DMH stabilized NaOCl, 1 min.
Where [5] appears, read: 2.1 ppm H2O2 + 1.0 ppm DMH stabilized NaOCl, 5 min.
The mark [6] stands for this setting: 2.1 ppm H2O2 + 1.0 ppm DMH stabilized NaOCl, 15 min.
Setting [7] is: 2.1 ppm H2O2 + 1.0 ppm DMH stabilized NaOCl, 60 min.
[8] abbreviates: 2.1 ppm H2O2 + 1.0 ppm NaOCl (as Cl2), 1 min.
Where [9] appears, read: pH 9.0, start 40 ppm sulfite + 20.0 ppm H2O2, 5 min.
[10] abbreviates: pH 9.0, start 40 ppm sulfite + 20.0 ppm H2O2, 15 min.
Setting [11] is: pH 9.0, start 40 ppm sulfite + 20.0 ppm H2O2, 30 min.
The mark [12] stands for this setting: pH 9.0, start 40 ppm sulfite + 20.0 ppm H2O2, 60 min.
[13] abbreviates: pH 9.0, start 40 ppm sulfite + 20.0 ppm H2O2, 120 min.
The mark [14] stands for this setting: pH 9.0, start 40 ppm sulfite + 20.0 ppm H2O2, 1080 min.
The mark [15] stands for this setting: Table 3 Test No. 2: sulfite 32 ppm, pH 9.0.
Where [16] appears, read: Table 3 Test No. 3: sulfite 128 ppm, pH 9.0.
Setting [17] is: Table 4 Test No. 2: sulfite 128 ppm.
Setting [18] is: Table 4 Test No. 3: sulfite 512 ppm.

`CC1(C)C(=O)NC(=O)N1Cl` [DMH stabilized NaOCl, 1-chloro-5,5-dimethylhydantoin]: the “Free active halogen DPD (as Cl2)” value in series [1] (setting [4]), in series [1] (setting [5]), in series [1] (setting [6]) and in series [1] (setting [7]) was 0.0 ppm each time. The “Indicated Species DMH stabilized NaOCl (as Cl2)” value came out at 0.9 ppm in series [1] (setting [4]), 1.0 ppm in series [1] (setting [5]), 0.9 ppm in series [1] (setting [6]) and 0.9 ppm in series [1] (setting [7]). The “Total active halogen DPD (as Cl2)” value was found to be 0.9 ppm in series [1] (setting [4]), 1.0 ppm in series [1] (setting [5]), 0.9 ppm in series [1] (setting [6]) and 0.9 ppm in series [1] (setting [7]).
As to `[Na+].[O-]Cl` [NaOCl], the “Free active halogen DPD (as Cl2)” value in series [1] (setting [8]) was 0.0 ppm. For the same compound, the “Indicated Species NaOCl (as Cl2)” value in series [1] (setting [8]) was 0.0 ppm; in series [1] (2.1 ppm H2O2 + 1.0 ppm NaOCl (as Cl2), 5 min) it was 0.0 ppm; in series [1] (2.1 ppm H2O2 + 1.0 ppm NaOCl (as Cl2), 15 min), 0.0 ppm. Also, the “Total active halogen DPD (as Cl2)” value in series [1] (setting [8]) was 0.0 ppm. For the same compound, the “free chlorine after combination” value in series [1] (combination of 2.1 ppm H2O2 with 1 ppm NaOCl (as Cl2), immediate) is “no detectable free chlorine”.
With `O=S([O-])[O-].[Na+].[Na+]` [Sulfite, sodium sulfite], the “Sulfite (as H2O2)” value in series [2] (pH 6.7, 21° C., start 40 ppm sulfite + 20.0 ppm H2O2, 15 min) is on record as 3.1 ppm; in series [2] (pH 6.7, 21° C., start 40 ppm sulfite + 20.0 ppm H2O2, 30 min) it was 2.3 ppm; in series [2] (pH 6.7, 21° C., start 40 ppm sulfite + 20.0 ppm H2O2, 60 min), 0.0 ppm; in series [2] (setting [9]), 7.9 ppm; in series [2] (setting [10]) it was 6.8 ppm; in series [2] (setting [11]), 6.7 ppm. Further, the “Sulfite (as H2O2)” value worked out at 6.2 ppm in series [2] (setting [12]), 5.2 ppm in series [2] (setting [13]) and 0.1 ppm in series [2] (setting [14]). In addition, the “Sulfite (as SO3^2−)” value is given as 7.2 ppm in series [2] (pH 6.7, 21° C., start 40 ppm sulfite + 20.0 ppm H2O2, 15 min after mixing); 5.4 ppm in series [2] (pH 6.7, 21° C., start 40 ppm sulfite + 20.0 ppm H2O2, 30 min after mixing); 0.0 ppm in series [2] (pH 6.7, 21° C., start 40 ppm sulfite + 20.0 ppm H2O2, 60 min after mixing); 18.7 ppm in series [2] (setting [9]); 16.0 ppm in series [2] (setting [10]); 15.7 ppm in series [2] (setting [11]). For the same compound, the “Sulfite (as SO3^2−)” value worked out at 14.6 ppm in series [2] (setting [12]), 12.3 ppm in series [2] (setting [13]) and 0.3 ppm in series [2] (setting [14]). In series [3] (Example 3, sulfite alone at 32-128 ppm), the “effect on bacterial populations” value was “no significant effect”. The “amount alone required to achieve 1 g cfu/mL reduction of 4.2” value in series [3] (Example 4, single agent) is reported as greater than 512 ppm. Also, in series [3] (Example 4, sulfite at 128-512 ppm), the “effect on the microbial populations” value was “no significant effect”. Moreover, the “3 h Reduction” value in series [3] (setting [15]) is −0.40 lg cfu/mL; in series [3] (setting [16]), −0.50 lg cfu/mL; in series [3] (setting [17]) it was 0.32 lg cfu/mL; in series [3] (setting [18]), 0.08 lg cfu/mL; in the series on Pseudomonas aeruginosa (Table 5 Test No. 2: sulfite 8.3 ppm) it was 0.1 lg cfu/mL; in the series on Pseudomonas aeruginosa (Table 5 Test No. 3: sulfite 0.83 ppm), 0.0 lg cfu/mL. For the same compound, the “24 h Reduction” value in series [3] (setting [15]) is recorded as 0.11 lg cfu/mL; in series [3] (setting [16]), −0.45 lg cfu/mL; in series [3] (setting [17]), 0.11 lg cfu/mL; in series [3] (setting [18]), −0.45 lg cfu/mL.
